Literature values in US7288142B2, “Black dyes composition for ink-jet inks” (Everlight USA, Inc., priority 2005, dated 2007).

Tests used:
[1] = as ink-jet black dye, prior art
[2] = as ink-jet black dye, prior art; remark: listed apart in the source

Compound	light-fastness [1]	solubility [2]
Nc1cc2c(O)c(N=Nc3ccc(N=Nc4ccc(S(=O)(=O)[O-])cc4)c4ccc(S(=O)(=O)[O-])cc34)c(S(=O)(=O)[O-])cc2cc1S(=O)(=O)[O-].[Na+].[Na+].[Na+].[Na+] [C.I. Food Black 2]	poor	
C.I. Direct Black 168	good	low
